Series [1] has as its target Histamine (H1) (Homo sapiens, UniProt P35367). Description: Histamine (H1) Binding Activity (Table I).
For series [2], the target named is human recombinant H1 histamine receptors (Homo sapiens, UniProt P35367). Description: biochemical. The procedure:
(Caliper Life Sciences, Hopkinton, Mass.). […] This study was performed using duplicate samples per data point (n=2).

The subject of series [3] is histamine-induced wheal and flare. Description: Wheal and flare further study, intravenous infusion. The class given is in vivo, rats. The conditions noted are these: for antihistamine efficacy (wheal size): IV infusion, rats. The procedure:
Briefly, rats received a continuous infusion via the jugular vein catheter for 60 minutes. […] Sixty minutes after the start of the infusion period, the rats were given four (4) interdermal (ID) injections of histamine ([…] in saline; dose 50 μL at 10 μg/rat). […] Twenty minutes after the histamine injections a caliper (Fowler Sylvac Ultra-Cal Mark III) was used to measure the wheal and flare (the diameter of the blue area). Two measurements of the diameter of the blue area at the site of histamine injection were made at 90 degrees from one another. […] Blood samples collected via cardiac puncture were used for diphenhydramine quantitation. The blood samples were placed in vacutainer tubes containing K2 EDTA. The rats were exsanguinated and the brain was rinsed in ice cold saline, wrapped in foil and frozen. The brain and the plasma samples were analyzed for drug content.

The nature of series [4]: Pharmacokinetics and oral bioavailability in rats. It counts as in vivo. Conditions: for half-life: read-out: T ½ (converted); for Vd: read-out: Vss; for bioavailability: read-out: F (oral bioavailability). The procedure:
For oral doses, 5 mg/kg if DPH-equivalent were used. […] Animals were dosed in triplicate by bolus injection to the femoral vein (IV) or oral gavage (PO), and whole blood was collected from the carotid artery from all animals at the appropriate time points for preparation of plasma samples. Quantitation of test article in plasma was performed by LC-MS/MS.

Series [5] in a line: Blood-brain barrier penetration, brain:plasma ratio after tail vein injection. Conditions: for Fold change (vs DPH): brain concentration, adjusted for DPH molar dose twice that of conjugates; for Kp at 1 h / concentration at 1 h: rat, intravenous; for Kp at 1 h: brain and plasma. The procedure:
The four compounds were tested following intravenous injection to the tail vein in rats.
After ensuring a single rat remained viable following a test dose, the rats (4 per condition) were dosed by tail vein injection and were sacrificed one hour later. Blood was collected by cardiac puncture, and brain tissue was collected. Plasma was prepared and brain tissue homogenized to enable quantitation of drug content by LC-MS/MS.
Concentrations of each compound were determined and brain:plasma ratios calculated accordingly.

Series [6] deals with T1, cloned hERG channels stably expressed in HEK cells (Homo sapiens, UniProt Q12809).
Series [7] can be described thus: in vitro. Conditions: human, hepatocytes.
For series [8], the target named is T1, cloned hERG channels stably expressed in HEK cells. The experiment in a line: hERG current inhibition, electrophysiology.
The test system of series [9] is spontaneously beating rat hearts. Description: In vitro safety pharmacology, spontaneously beating rat hearts. The text has this: The objective of this study was to determine the potential effects of escalating concentrations of conjugates on electrophysiological (PQ, QRS, RR, QT, QTc), and mechanical (dLVP/dtmax and dLVP/dtmin) properties in spontaneously beating rat hearts.

Series [10] deals with guinea pig hearts.
Series [11] has as its system human hepatocytes. The experiment in a line: Metabolic stability in human hepatocytes. Conditions: for metabolic breakdown / hepatic intrinsic clearance compared with diphenhydramine: human, hepatocytes.
Series [12] has as its system histamine-induced wheal and flare response. The class given is in vivo. The procedure:
Wheal and flare (erythema) experiments were performed in rats in order to measure in vivo activity of PEG-diphenhydramine. Intradermal injection of histamine produces a “wheal and flare” response in the skin as a result of histamine-induced mast cell degranulation, which is prevented by treatment with effective antihistamines.
Histamine was prepared from histamine diphosphate salt at 1 mg/mL (3.26 mM) in PBS, and was administered by intradermal injection 2.5 minutes after IV injection of the test article to the tail vein. At 5, 10, 20, 30 and 60 minutes post-injection, wheal sizes were measured using calipers and areas calculated (width×length, mm^2). Flare responses were measured by eye, and were graded on a scoring system of 1 (least significant)-5 (most severe).

For series [13], the system named is rat hepatocyte. The experiment in a line: Rat hepatocyte incubation.
The subject of series [14] is hepatocytes. The experiment in a line: Hepatocyte metabolism, dog.
The subject of series [15] is guinea pig hearts. Description: In vitro safety pharmacology, guinea pig hearts. The conditions noted are these: rat and guinea pig preparations responded similarly.
Where [16] appears, read: rat, plasma, IV, 1 mg/kg DPH-equivalent.
Setting [17] is: rat, plasma, IV, 1 mg/kg DPH-equivalent, read-out: Cmax.
Where [18] appears, read: rat, plasma, oral 5 mg/kg vs IV 1 mg/kg.
[19] abbreviates: rat, plasma, oral, 5 mg/kg DPH-equivalent.
The mark [20] stands for this setting: rat, plasma, oral, 5 mg/kg DPH-equivalent, read-out: Cmax.
Where [21] appears, read: rat, plasma, oral, 5 mg/kg DPH-equivalent, read-out: Tmax.
Where [22] appears, read: one hour after tail vein injection, rats.

Each structure is given as a SMILES string. “And” between values parts separate entries of the source, which are not always exact repeats. Equal entries are not always repeated. Where two headings read alike, the source gives them in different places.

human recombinant H1 histamine receptors, sequence (P35367 whole entry): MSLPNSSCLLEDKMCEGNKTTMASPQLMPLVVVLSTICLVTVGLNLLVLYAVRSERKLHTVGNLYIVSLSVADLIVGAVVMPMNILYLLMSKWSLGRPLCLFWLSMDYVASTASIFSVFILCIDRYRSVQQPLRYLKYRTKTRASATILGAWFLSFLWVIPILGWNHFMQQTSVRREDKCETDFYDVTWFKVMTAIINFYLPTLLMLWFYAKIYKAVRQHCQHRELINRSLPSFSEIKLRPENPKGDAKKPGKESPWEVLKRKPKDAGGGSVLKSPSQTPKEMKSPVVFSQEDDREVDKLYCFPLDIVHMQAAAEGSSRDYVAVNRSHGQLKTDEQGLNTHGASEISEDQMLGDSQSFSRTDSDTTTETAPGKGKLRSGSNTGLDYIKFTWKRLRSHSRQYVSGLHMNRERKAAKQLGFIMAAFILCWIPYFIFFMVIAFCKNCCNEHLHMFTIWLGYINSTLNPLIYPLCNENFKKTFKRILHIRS
T1 sequence (Q12809 whole entry): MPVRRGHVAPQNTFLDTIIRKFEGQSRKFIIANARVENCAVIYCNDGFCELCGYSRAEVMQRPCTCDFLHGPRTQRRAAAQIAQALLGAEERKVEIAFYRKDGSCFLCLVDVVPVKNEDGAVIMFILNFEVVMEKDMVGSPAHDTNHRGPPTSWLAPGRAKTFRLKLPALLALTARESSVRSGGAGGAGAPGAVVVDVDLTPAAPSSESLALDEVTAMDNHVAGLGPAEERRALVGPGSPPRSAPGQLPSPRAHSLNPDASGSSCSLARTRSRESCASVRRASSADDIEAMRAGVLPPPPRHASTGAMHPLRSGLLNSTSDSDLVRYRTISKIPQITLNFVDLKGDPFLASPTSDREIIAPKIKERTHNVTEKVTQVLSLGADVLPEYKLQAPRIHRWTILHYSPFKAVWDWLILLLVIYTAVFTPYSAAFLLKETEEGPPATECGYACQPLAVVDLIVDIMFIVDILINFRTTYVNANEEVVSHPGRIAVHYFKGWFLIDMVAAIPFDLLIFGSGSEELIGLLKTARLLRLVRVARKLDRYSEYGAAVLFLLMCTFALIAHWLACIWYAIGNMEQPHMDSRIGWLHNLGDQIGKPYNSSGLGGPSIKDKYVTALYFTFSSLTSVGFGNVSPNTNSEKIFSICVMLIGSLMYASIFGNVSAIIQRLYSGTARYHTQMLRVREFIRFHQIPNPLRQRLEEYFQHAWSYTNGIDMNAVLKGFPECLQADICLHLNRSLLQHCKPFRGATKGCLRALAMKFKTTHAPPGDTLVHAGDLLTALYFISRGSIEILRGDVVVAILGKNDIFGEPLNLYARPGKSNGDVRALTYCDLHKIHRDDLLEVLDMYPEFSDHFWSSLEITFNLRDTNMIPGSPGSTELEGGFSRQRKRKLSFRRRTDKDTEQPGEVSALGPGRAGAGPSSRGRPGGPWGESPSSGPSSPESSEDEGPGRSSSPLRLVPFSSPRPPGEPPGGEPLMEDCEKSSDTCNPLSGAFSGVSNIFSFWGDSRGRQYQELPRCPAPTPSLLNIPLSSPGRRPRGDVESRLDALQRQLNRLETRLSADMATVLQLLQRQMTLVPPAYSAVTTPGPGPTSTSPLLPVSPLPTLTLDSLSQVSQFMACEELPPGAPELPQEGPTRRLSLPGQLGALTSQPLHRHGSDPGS
Histamine (H1), sequence (P35367 whole entry): as the sequence (P35367 whole entry) above

In general, IC50 refers to the concentration at which inhibition is half-maximal. Broadly, the Ki is the equilibrium dissociation constant of an inhibitor or competing ligand from its target. The term AUC(0-inf) denotes the area under the concentration-time curve extrapolated to infinity. A word on the Cmax: it is the highest concentration seen after dosing. The bioavailability is the share of a dose that reaches the circulation, judged against a reference dose that is usually intravenous. The Tmax is the time from dosing to the highest level. By Kp is commonly meant the ratio of the level in a tissue or fluid to that in plasma or blood. In series [1], `COCCOCCOCCOCCOCCOCCOCCN(C)CCOC(c1ccccc1)c1ccccc1` [mPEG(7)-N-Diphenhydramine, mPEG7-N-diphenhydramine] registered an IC50 of 1730 nM. Further, in series [2], the Fold vs parent is 20.1 and 28.7; the Ki was 605 nM and 454 nM. Further, the “antihistamine efficacy (wheal size)” value in series [3] is “no efficacy in concentration range tested”. In series [4] (setting [16]), the AUC(0-inf) worked out at 410 ng·h/mL, the clearance was 78.4 mL/min/kg, the half-life was 25.8 min and the Vd came out at 2.07 L/kg. Further, the Cmax in series [4] (setting [17]) worked out at 882 ng/mL. Moreover, the bioavailability in [4] (setting [18]) worked out at 1.3%. Moreover, in series [4] (setting [19]), the AUC(0-inf) turned out to be 26.6 ng·h/mL and the half-life is 28.2 min. In addition, the Cmax in series [4] (setting [20]) came out at 41.3 ng/mL. The Tmax in [4] (setting [21]) was determined as 15 min. In [5], the “Fold change (vs DPH)” value amounted to 26 and the Kp at 1 h lay in the range of 0.2 to 1. For the same molecule, the concentration at 1 h in series [5] (brain) is 106 ± 27.1 ng/g. The concentration at 1 h in series [5] (plasma) was determined as 545 ± 57.9 ng/mL. In [6], this molecule returned an IC50 fold lower of 4 fold. In addition, in series [7], the half-life is 88.4 min. This molecule also displayed an IC50 in series [8] of 13000 nM.

Take `COCCOCCOCCOCCOCCN(C)CCOC(c1ccccc1)c1ccccc1` [mPEG5-N-diphenhydramine]: in series [1], the IC50 amounted to 600 nM. In series [2], the Fold vs parent is 11.1 and 14.6; the inhibition constant Ki was 333 nM and 230 nM. In addition, in series [9], the “dromotropism (PQ and QRS)” value is “greater negative dromotropism (lengthening of PQ and QRS) than diphenhydramine”; the “effect on coronary smooth muscle” value is “vasodilatory effect”; the “ventricular repolarization (QT and QTc)” value was “retard ventricular repolarization (QT and QTc) slightly more than diphenhydramine or quinidine”. In series [9] (10^−5 M), the cardiodeceleration result was “greater cardiodeceleration”; the inotropism and lusitropism entry is “striking positive inotropism and lusitropism”. Further, the “antihistamine efficacy (wheal size)” value in series [3] was “demonstrated efficacy, but toxicity occurs at same concentrations”. Further, in series [3] (efficacy at diphenhydramine-equivalent target plasma concentrations), the “fold weaker than diphenhydramine” value is given as ≥ 10 fold. Further, in series [4] (setting [16]), the AUC(0-inf) stood at 391 ng·h/mL, the clearance was 69.5 mL/min/kg, the half-life was 19.8 min and the Vd turned out to be 1.98 L/kg. Also, the Cmax in series [4] (setting [17]) came to 821 ng/mL. In series [4] (setting [18]), the bioavailability was determined as 1.5%. Also, in [4] (setting [19]), the area under the curve AUC(0-inf) came out at 29.4 ng·h/mL and the half-life was 22.8 min. The maximum concentration (Cmax) in series [4] (setting [20]) was determined as 53.6 ng/mL. For the same molecule, in [4] (setting [21]), the time to peak (Tmax) is 15 min. In series [5], the “Fold change (vs DPH)” value turned out to be 28 and the Kp at 1 h was 0.2 to 1. Also, the concentration at 1 h in series [5] (brain) turned out to be 97.9 ± 32.9 ng/g. In addition, the concentration at 1 h in [5] (plasma) was determined as 415 ± 78.7 ng/mL. Besides, the Coronary perfusion entry in series [10] is “increased dramatically”. For the same molecule, the “QRS and PQ durations” value in [10] (guinea pig) is recorded as “increase only for 10^−5 M concentration”. The half-life in series [7] was 44.2 min. In series [11], the “metabolic breakdown / hepatic intrinsic clearance compared with diphenhydramine” value was “moderately faster metabolic breakdown than diphenhydramine”.

Consider `COCCOCCOCCOCCOCCOCCN(C)CCOC(c1ccccc1)c1ccccc1` [mPEG(6)-N-Diphenhydramine, mPEG6-N-diphenhydramine], for which, in [12] (0.03 mg/kg), the “flare response (visual scoring)” value was “flare responses begin to return” and the wheal size result is “did not produce a detectable change in wheal size”. Further, in series [12] (1 mg/kg IV, rat), the “toxicity in first animal dosed” value was “suffered convulsions and died”. For the same molecule, the wheal size entry in series [12] (0.1, 0.3 mg/kg) is “reduced the size of the wheal compared with control injection”. For the same molecule, the “percent decrease in the wheal response (change in wheal size)” value in series [12] (20 minute time-point, 0.1-0.3 mg/kg dose range) is “approximately 25%”. The “flare response (visual scoring)” value in series [12] (highest concentrations) is listed as “no detectable flare”. In series [4] (IV, 1 mg/kg DPH-equivalent), the AUCinf came out at 405 ng·h/mL, the CL stood at 73.32 mL/min/kg, the Cmax was 790 ng/mL and the “T ½” value turned out to be 22.8 min. Further, the Vss in series [4] (IV, 1 mg/kg DPH-equivalent) came to 1.91 L/kg. The “F (oral bioavailability)” value in series [4] (oral 5 mg/kg vs IV 1 mg/kg) is on record as 2.4%. Further, in series [4] (oral, 5 mg/kg DPH-equivalent), the AUCinf was 49.1 ng·h/mL, the Cmax came to 81.9 ng/mL, the “T ½” value came out at 23.4 min and the Tmax stood at 15 min. Besides, in series [5] (setting [22]), the Brain concentration turned out to be 45.1 ± 4.4 ng/g and the Plasma concentration came to 237.0 ± 41.1 ng/mL. The “metabolic breakdown compared with diphenhydramine” value in series [13] is listed as “slower metabolic breakdown than diphenhydramine”. Also, in series [14], the “hepatic intrinsic clearance compared with diphenhydramine” value is listed as “faster than that of the parent diphenhydramine”. Also, the “Half-Life (t1/2) (hepatocytes)” value in [11] (human hepatocytes, initial rate of loss of parent, n=1) came out at 122.9 min. Besides, the “metabolic breakdown / hepatic intrinsic clearance compared with diphenhydramine” value in [11] is on record as “faster than that of the parent diphenhydramine”. For the same molecule, the IC50 in series [8] (read-out: IC50 hERG channel, hERG current, HEK cells) was 3790 nM.

On to `C=C[C@H]1C[N@@]2CC[C@H]1C[C@@H]2[C@@H](O)c1ccnc2ccc(OC)cc12` [quinidine], for which the QT result in series [15] was “lengthened dramatically”.
